Measurements: patent US20240360113A1, “AMINOARYL-INTEGRIN AGONISTS COMPOUNDS” (Texas Heart Institute, priority 2021, published 2024)

Key:
αLβ2/ICAM-1 = target: T1, αLβ2/ICAM-1 (Homo sapiens, UniProt P05107+P20701); test: Static cell adhesion assay, HSB cells on ICAM-1 (LFA-1; LAD); assay type: cell-based; conditions: RFU of compound / RFU of THI0349, both at the same concentration
T1 construct: The Jurkat (VCAM-1 assays) and HSB (ICAM-1 assays) cell lines were obtained from American Type Culture Collection; endogenous in cells; host or cells: HSB (ATCC)
Procedure: (§1) For in vitro cell adhesion assays, compounds were dissolved in DMSO to make a series of stock solutions such that a 1:100 dilution in assay buffer would yield the desired final working concentrations in 1% DMSO (vehicle). Human VCAM-1 and ICAM-1 were purchased from R&D Systems (Minneapolis, MN). The Jurkat (VCAM-1 assays) and HSB (ICAM-1 assays) cell lines were obtained from American Type Culture Collection (Manassas, VA) and were maintained in recommended culture media.
(§2) Assays were performed as previously described in Vanderslice et al., (2010), Biochem Biophys Res Commun 400, 619-624; and Vanderslice et al., (2013) J Biol Chem 288, 19414-19428. VCAM-1 or ICAM-1 ligand in 50 μL of 50 mM Tris-HCl (pH 7.4), 150 mM NaCl, (TBS) was added to wells of a 96-well plate and allowed to coat overnight at 4° C. To maximize the window to evaluate agonist activity, a sub-optimal coating concentration of ligand was used, typically 0.5 and 5 μg/mL in 50 μL TBS for VCAM-1 and ICAM-1 respectively. This ligand concentration corresponded approximately to that which would yield <5% adhesion as determined by dose-response curves. Briefly, 2×10^6 cells were labeled for 30 minutes with calcein-AM (Molecular Probes), washed, resuspended in binding buffer, and added to triplicate wells of ligand-coated plates (2×10^5 cells/well) that had been blocked with 2% BSA. After a 30-minute incubation at 37° C., the plates were washed 3 times with binding buffer, the adherent cells were lysed, and fluorescence was measured on a Tecan Safire^2 plate reader. The binding buffer was PBS with 1 mM MgCl2, 50% FBS for α4β1/VCAM-1 assays and PBS with 2 mM MgCl2, 5 mM EGTA, 50% FBS for αLβ2/ICAM-1 assays. EC50 is defined as the concentration of compound required to achieve 50% of the maximal response.
In relation to LAD (Leukocyte Adhesion Deficiency), LFA-1 ratios are determined by dividing the relative fluorescence units (RFU) of each compound at a concentration of 3 μM over that of the reference standard of THI0349, also at 3 μM, (RFU Compound/RFU of THI0349). Log Ps were calculated by either Chemdraw® version 12 (CambridgeSoft) or ACD/Chemsketch® (ACD/Labs).

α4β1/VCAM-1 = target: T2, α4β1/VCAM-1 (Homo sapiens, UniProt P05556+P13612); test: Static cell adhesion assay, Jurkat cells on VCAM-1 (VLA-4 agonist activity); assay type: cell-based; conditions: EC50 relative to THI0349 (average 11 uM) run on the same plate; Jurkat cells, 50% FBS
T2 construct: The Jurkat (VCAM-1 assays) and HSB (ICAM-1 assays) cell lines were obtained from American Type Culture Collection; endogenous in cells; host or cells: Jurkat (ATCC)
Procedure: as §1, §2

T1 sequence (P20701 26-1170): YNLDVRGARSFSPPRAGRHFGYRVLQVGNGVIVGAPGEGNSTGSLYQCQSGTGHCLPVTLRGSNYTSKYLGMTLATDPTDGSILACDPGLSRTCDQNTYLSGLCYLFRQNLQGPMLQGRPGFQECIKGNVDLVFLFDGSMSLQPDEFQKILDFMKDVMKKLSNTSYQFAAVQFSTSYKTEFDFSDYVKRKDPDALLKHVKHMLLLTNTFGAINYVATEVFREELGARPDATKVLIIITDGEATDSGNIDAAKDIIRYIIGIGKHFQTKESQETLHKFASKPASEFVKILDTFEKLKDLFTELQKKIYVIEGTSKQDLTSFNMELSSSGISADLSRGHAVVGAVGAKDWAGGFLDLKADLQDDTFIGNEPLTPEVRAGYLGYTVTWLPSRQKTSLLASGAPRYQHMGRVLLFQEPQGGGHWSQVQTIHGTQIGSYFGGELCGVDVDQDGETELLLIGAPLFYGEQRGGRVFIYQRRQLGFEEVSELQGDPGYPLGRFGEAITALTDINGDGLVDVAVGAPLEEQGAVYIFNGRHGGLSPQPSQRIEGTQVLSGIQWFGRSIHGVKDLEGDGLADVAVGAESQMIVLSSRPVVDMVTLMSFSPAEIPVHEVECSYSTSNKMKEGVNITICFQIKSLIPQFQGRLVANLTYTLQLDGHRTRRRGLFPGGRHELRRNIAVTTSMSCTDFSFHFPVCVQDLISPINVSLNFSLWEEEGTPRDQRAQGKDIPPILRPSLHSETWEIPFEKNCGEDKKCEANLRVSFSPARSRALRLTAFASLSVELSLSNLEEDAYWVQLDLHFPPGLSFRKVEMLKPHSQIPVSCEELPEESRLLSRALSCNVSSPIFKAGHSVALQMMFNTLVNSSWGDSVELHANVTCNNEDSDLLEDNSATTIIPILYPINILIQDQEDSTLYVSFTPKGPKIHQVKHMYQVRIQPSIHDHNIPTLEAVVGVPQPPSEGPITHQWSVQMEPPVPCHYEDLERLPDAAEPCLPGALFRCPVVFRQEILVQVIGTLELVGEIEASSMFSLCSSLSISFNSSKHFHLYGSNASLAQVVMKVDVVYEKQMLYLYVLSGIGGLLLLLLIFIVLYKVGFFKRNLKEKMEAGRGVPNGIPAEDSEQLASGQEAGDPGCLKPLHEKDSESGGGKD
T1 sequence (P05107 23-769): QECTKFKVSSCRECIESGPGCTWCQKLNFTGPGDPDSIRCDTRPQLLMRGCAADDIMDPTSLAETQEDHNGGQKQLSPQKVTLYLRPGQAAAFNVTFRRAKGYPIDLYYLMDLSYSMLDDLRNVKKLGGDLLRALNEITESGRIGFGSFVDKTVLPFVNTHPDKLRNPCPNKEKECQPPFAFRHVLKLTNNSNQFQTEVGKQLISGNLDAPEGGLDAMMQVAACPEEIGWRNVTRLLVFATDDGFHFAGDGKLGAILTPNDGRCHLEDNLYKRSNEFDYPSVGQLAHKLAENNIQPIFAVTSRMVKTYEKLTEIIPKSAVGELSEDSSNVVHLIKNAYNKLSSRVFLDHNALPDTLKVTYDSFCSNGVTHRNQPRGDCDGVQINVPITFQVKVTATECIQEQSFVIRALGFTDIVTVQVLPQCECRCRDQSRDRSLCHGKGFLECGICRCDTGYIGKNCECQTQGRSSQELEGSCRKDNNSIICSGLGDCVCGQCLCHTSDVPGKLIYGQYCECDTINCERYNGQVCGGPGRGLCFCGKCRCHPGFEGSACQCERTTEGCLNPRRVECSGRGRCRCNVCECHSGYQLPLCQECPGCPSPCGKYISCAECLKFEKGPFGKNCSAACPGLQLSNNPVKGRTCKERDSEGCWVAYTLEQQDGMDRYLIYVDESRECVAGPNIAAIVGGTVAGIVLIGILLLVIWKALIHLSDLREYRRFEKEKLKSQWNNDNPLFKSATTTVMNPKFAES
T2 sequence (P13612 34-1032): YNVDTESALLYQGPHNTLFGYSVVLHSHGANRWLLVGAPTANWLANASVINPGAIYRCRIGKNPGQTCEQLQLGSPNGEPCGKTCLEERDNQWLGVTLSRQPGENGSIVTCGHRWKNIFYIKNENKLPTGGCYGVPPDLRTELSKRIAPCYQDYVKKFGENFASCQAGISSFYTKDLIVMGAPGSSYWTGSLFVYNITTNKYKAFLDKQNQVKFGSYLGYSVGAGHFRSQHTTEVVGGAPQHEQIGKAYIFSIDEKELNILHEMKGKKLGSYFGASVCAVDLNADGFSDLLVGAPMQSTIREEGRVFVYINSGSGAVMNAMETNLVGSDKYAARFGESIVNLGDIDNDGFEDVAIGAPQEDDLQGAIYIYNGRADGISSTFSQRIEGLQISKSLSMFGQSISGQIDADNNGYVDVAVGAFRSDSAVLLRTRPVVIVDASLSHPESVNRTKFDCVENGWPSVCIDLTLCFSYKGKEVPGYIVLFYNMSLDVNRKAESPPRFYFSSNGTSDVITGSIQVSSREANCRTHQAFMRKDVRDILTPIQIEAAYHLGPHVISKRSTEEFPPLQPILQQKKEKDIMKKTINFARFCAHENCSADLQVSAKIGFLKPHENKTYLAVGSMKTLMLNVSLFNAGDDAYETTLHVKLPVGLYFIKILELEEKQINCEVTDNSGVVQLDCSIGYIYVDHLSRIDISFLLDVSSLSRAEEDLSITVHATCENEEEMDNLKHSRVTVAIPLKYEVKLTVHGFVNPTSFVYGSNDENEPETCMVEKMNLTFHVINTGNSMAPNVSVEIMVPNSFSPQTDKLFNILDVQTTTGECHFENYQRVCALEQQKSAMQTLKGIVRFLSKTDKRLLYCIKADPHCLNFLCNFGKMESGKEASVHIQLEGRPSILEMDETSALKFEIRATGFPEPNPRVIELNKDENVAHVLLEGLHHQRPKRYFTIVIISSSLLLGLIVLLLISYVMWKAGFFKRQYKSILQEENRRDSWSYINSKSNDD
T2 sequence (P05556 21-798): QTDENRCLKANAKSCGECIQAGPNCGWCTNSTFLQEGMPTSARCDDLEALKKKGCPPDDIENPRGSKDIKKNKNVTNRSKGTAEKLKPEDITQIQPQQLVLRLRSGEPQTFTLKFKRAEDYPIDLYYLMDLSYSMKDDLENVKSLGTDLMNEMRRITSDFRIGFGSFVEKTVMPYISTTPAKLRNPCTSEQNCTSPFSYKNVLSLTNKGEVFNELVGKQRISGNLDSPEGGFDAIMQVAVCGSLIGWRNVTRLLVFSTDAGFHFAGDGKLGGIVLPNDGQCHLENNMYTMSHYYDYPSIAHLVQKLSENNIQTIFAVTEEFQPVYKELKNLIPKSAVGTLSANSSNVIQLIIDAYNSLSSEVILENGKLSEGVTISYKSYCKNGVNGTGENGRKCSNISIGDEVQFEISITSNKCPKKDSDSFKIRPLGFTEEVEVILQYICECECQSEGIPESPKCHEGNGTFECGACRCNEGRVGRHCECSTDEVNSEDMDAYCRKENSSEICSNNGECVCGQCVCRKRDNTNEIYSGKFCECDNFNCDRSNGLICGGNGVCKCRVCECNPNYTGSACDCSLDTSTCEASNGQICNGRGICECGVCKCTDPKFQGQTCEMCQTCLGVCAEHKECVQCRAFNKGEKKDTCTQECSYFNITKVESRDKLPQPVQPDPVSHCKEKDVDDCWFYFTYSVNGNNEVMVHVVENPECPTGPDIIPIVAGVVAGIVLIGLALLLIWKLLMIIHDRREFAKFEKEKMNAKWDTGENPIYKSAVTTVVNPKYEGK

Row | SMILES | LAD Raw Fluorescence Units against LFA-1; Dose 3 µM; Ratio of raw counts Compound/THI0349 (αLβ2/ICAM-1) | Group against VCAM (α4β1/VCAM-1)
1 | COc1cccc(COc2cc(C)n(N(Cc3cccc(OC)c3)Cc3cccc(OC)c3)c(=O)c2)c1 [Compound 127, 1-(bis(3-methoxybenzyl)amino)-4-((3-methoxybenzyl)oxy)-6-methylpyridin-2(1H)-one] | 0.75 | II (Group II is more than twice that of THI0349 but less than five times THI0349's EC50)
2 | COc1cccc(CN(Cc2cccc(OC)c2)c2nc(COCCN3CCOCC3)co2)c1 [Compound 87, N,N-bis(3-methoxybenzyl)-4-((2-morpholinoethoxy)methyl)oxazol-2-amine] | 0.2 | I (Group I maintains at least the same potency or better up to more than twice that of the EC50 of THI0349 ran on the same plate)
3 | CCOC(=O)c1coc(N(Cc2cccs2)Cc2cccs2)n1 [Compound 13, ethyl 2-(bis(thiophen-2-ylmethyl)amino)oxazole-4-carboxylate] | 0.1 | I (Group I maintains at least the same potency or better up to more than twice that of the EC50 of THI0349 ran on the same plate)
4 | COc1ccc(CCc2csc(N(Cc3cccc(OC)c3)Cc3cccc(OC)c3)n2)cc1 [Compound 71, N,N-bis(3-methoxybenzyl)-4-(4-methoxyphenethyl)thiazol-2-amine] | 0.1 | III (Group III more than five times the EC50 of THI0349)
5 | COc1cccc(COCc2ccc(N(Cc3cccc(OC)c3)Cc3cccc(OC)c3)cc2)c1 [Compound 89, N,N-bis(3-methoxybenzyl)-4-((3-methoxybenzyloxy)methyl)aniline] | 0.34 | III (Group III more than five times the EC50 of THI0349)
6 | COc1cccc(CN(Cc2cccc(OC)c2)c2nc(CN3CCCCC3)cs2)c1 [Compound 68, N,N-bis(3-methoxybenzyl)-4-(piperidin-1-ylmethyl)thiazol-2-amine] | 1.6 | II (Group II is more than twice that of THI0349 but less than five times THI0349's EC50)
7 | COc1cccc(COCCOCc2csc(N(Cc3cccc(OC)c3)Cc3cccc(OC)c3)n2)c1 [Compound 57, N,N-bis(3-methoxybenzyl)-4-((2-(3-methoxybenzyloxy)ethoxy)methyl)thiazol-2-amine] | 0.25 | I (Group I maintains at least the same potency or better up to more than twice that of the EC50 of THI0349 ran on the same plate)
8 | COc1ccc(CCOCc2csc(N(Cc3cccc(OC)c3)Cc3cccc(OC)c3)n2)cc1 [Compound 40, N,N-bis(3-methoxybenzyl)-4-((4-methoxyphenethoxy)methyl)thiazol-2-amine] | 0.4 | III (Group III more than five times the EC50 of THI0349)
9 | COc1cccc(CN(Cc2cccc(OC)c2)c2nc(COCCOCCOc3ccccc3)cs2)c1 [Compound 43, N,N-bis(3-methoxybenzyl)-4-((2-(2-phenoxyethoxy)ethoxy)methyl)thiazol-2-amine] | 0.80 | I (Group I maintains at least the same potency or better up to more than twice that of the EC50 of THI0349 ran on the same plate)
10 | COc1cccc(CN(Cc2cccc(OC)c2)c2nc(COCCOc3cccc(C#N)c3)cs2)c1 [Compound 50, 3-(2-((2-(bis(3-methoxybenzyl)amino)thiazol-4-yl)methoxy)ethoxy)benzonitrile] | 1.2 | III (Group III more than five times the EC50 of THI0349)
11 | CCOC(=O)c1csc(N(Cc2cccc(OC)c2)Cc2cccc(-n3ccnc3)c2)n1 [Compound 118, ethyl 2-((3-(1H-imidazol-1-yl)benzyl)(3-methoxybenzyl)amino)thiazole-4-carboxylate] | 0.15 | II (Group II is more than twice that of THI0349 but less than five times THI0349's EC50)
12 | COc1cccc(CN(Cc2cccc(OC)c2)c2nc(COCCN(C)C)cs2)c1 [Compound 82, 4-((2-(dimethylamino)ethoxy)methyl)-N,N-bis(3-methoxybenzyl)thiazol-2-amine] | 0.05 | II (Group II is more than twice that of THI0349 but less than five times THI0349's EC50)
13 | CCOC(=O)c1coc(N(Cc2cccc(OC)c2)Cc2cccc(OC)c2)n1 [Compound 14, ethyl 2-(bis(3-methoxybenzyl)amino)oxazole-4-carboxylate] | 1.0 | I (Group I maintains at least the same potency or better up to more than twice that of the EC50 of THI0349 ran on the same plate)
14 | COc1cccc(COCCOCCOCc2csc(N(Cc3cccc(OC)c3)Cc3cccc(OC)c3)n2)c1 [Compound 55, N,N-bis(3-methoxybenzyl)-4-((2-(2-((3-methoxybenzyl)oxy)ethoxy)ethoxy)methyl)thiazol-2-amine] | 1.1 | I (Group I maintains at least the same potency or better up to more than twice that of the EC50 of THI0349 ran on the same plate)
15 | COc1cccc(CN(Cc2cccc(OC)c2)c2nc(COCCOCCOCc3ccccc3C)cs2)c1 [Compound 54, N,N-bis(3-methoxybenzyl)-4-((2-(2-((2-methylbenzyl)oxy)ethoxy)ethoxy)methyl)thiazol-2-amine] | 1.8 | I (Group I maintains at least the same potency or better up to more than twice that of the EC50 of THI0349 ran on the same plate)
16 | CCOC(=O)c1coc(N(Cc2cccc(OCCOC)c2)Cc2cccc(OCCOC)c2)n1 [Compound 16, ethyl 2-(bis(3-(2-methoxyethoxy)benzyl)amino)oxazole-4-carboxylate] | 0.49 | II (Group II is more than twice that of THI0349 but less than five times THI0349's EC50)
17 | COc1cccc(CN(Cc2cccc(OC)c2)c2nc(COCCOCCN3CCN(C)CC3)cs2)c1 [Compound 63, N,N-bis(3-methoxybenzyl)-4-((2-(2-(4-methylpiperazin-1-yl)ethoxy)ethoxy)methyl)thiazol-2-amine] | 0.5 | III (Group III more than five times the EC50 of THI0349)
18 | COc1cccc(CN(Cc2cccc(OC)c2)c2nc(CN3CCOCC3)co2)c1 [Compound 81, N,N-bis(3-methoxybenzyl)-4-(morpholinomethyl)oxazol-2-amine] | 0.36 | II (Group II is more than twice that of THI0349 but less than five times THI0349's EC50)
19 | COc1cccc(CN(Cc2cccc(N3CCOCC3)c2)c2nc(CN3CCOCC3)cs2)c1 [Compound 78, N-(3-methoxybenzyl)-N-(3-morpholinobenzyl)-4-(morpholinomethyl)thiazol-2-amine] | 0.4 | II (Group II is more than twice that of THI0349 but less than five times THI0349's EC50)
